From patent EP0450097B1, “BENZOHETEROCYCLIC COMPOUNDS” (OTSUKA PHARMACEUTICAL CO., LTD., priority 1989, dated 1991)

What was measured:
V₂ receptor = molecular target: T1, V₂ receptor (Rattus norvegicus, UniProt Q00788); experiment: V₂ receptor binding assay ([³H]-Arg-vasopressin, rat kidney plasma membrane preparations); conditions: 4°C for 3 hours
T1 construct: Using rat kidney plasma membrane preparations; from tissue; host or cells: rat kidney plasma membranes
Method in brief: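 Rat kidney plasma membranes incubated with [³H]-vasopressin and test compound, then filtered on GF/F glass filters and bound radioactivity counted by liquid scintillation.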

V₁ receptor = molecular target: T2, V₁ receptor (Rattus norvegicus, UniProt P30560); experiment: V₁ receptor binding assay ([³H]-Arg-vasopressin, rat liver plasma membrane preparations); conditions: 37°C for 10 minutes
T2 construct: Using rat liver plasma membrane preparations; from tissue; host or cells: rat liver plasma membranes
T2 sequence (P30560 whole entry): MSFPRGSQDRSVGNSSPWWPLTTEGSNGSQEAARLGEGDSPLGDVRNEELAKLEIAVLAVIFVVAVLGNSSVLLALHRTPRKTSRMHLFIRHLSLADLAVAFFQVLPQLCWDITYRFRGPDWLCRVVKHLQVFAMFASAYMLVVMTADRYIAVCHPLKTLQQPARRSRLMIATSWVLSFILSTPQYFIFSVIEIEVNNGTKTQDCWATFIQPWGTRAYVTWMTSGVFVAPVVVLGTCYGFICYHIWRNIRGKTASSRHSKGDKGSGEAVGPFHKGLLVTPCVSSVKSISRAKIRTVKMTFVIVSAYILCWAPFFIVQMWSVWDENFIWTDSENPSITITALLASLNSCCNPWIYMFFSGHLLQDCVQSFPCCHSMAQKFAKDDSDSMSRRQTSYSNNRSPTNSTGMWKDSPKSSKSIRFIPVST
Description: Using rat liver plasma membrane preparations prepared according to Ichihara's method [cf: Akira Ichihara, J. Bio. Chem., 258, 9283 (1983)], the plasma membrane (50000dpm, 2x10⁻¹⁰ M) of [³H]-Arg-vasopressin and a test compound (60 µg, 10⁻⁸-10⁻⁴ M) are incubated at 37°C for 10 minutes in 100 mM Tris-HCl buffer (pH: 8.0, 250 µl) containing 5 mM MgCl₂, 1 mM EDTA and 0.1 % BSA. After incubation, the mixture is filtered three times using the glass filter (GF/F) so as to separate the membrane preparation combined with vasopressin and then washed with the buffer (5 ml). This glass filter is taken out and mixed with liquid scintillation cocktail. The amount of [³H]-vasopressin combined with the membrane is measured by liquid scintillation counter and the rate of the inhibitory effect of the test compound is estimated according to the following equation. Rate of the inhibitory effect (%) = 100 -(C1 - B1)/(C0 - B1)X 100 [formula] C¹: The amount of [³H]-vasopressin combined with the membrane in the presence of the test compound (in prescribed amount). C⁰: The amount of [³H]-vasopressin combined with the membrane in the absence of the test compound. B¹: The amount of [³H]-vasopressin combined with the membrane in the presence of the excess amount of vasopressin (10⁻⁶ M).
The results are expressed as IC₅₀ values, which is the concentration of the test compound required to achieve the inhibitory effect in the rate of 50 %.

SD rats = experiment: Anti-antidiuretic activity (effect on endogenous ADH), amount of urine; format: in vivo; conditions: for ED (3-fold urine volume): Rattus norvegicus, iv, read-out: ED₃
Excerpt: […] During this measurement, the rats are allowed to take water and feed freely.
The amount of urine of control rats (solvent-treated group) is regarded as 100 %, and the results are expressed as ED₃ value, which is the dose of the test compound to be required to excrete the urine by three times than that of the control rats.

[1] = administered into a caudal vein, urine collected for 2 hours, dose to excrete the urine by three times that of control rats, solvent dimethylformamide

T1 sequence (Q00788 whole entry): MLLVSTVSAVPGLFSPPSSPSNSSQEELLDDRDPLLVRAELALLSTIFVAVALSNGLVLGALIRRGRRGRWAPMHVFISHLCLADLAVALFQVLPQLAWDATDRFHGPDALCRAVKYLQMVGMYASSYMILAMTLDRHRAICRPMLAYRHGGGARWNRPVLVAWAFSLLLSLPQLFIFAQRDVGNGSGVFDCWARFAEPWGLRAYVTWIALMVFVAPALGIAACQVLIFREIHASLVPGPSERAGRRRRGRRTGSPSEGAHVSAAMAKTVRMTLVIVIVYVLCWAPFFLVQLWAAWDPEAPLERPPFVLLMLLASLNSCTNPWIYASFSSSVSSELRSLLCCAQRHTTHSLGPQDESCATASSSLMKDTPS

| Structure (SMILES) | IC50 (V₂ receptor) | IC50 (V₁ receptor) | ED (3-fold urine volume) (SD rats; [1]) | ED₃ (SD rats; as E3, but physiological saline solution used as solvent instead of dimethylformamide) | ED₃ (SD rats; [1]) |
| --- | --- | --- | --- | --- | --- |
| Cc1cccc(C(=O)Nc2ccc(C(=O)N3CCCCc4ccccc43)cc2)c1C [compound 33] | 7 nM | 92 nM | 1.9 mg/kg | – | – |
| Cc1ccccc1C(=O)Nc1ccc(C(=O)N2CCCC(N(C)C)c3ccccc32)cc1 (centres unmarked) [compound 249] | – | – | – | 0.4 ^*) mg/kg | – |
| Cc1cccc(C(=O)Nc2ccc(C(=O)N3CCCc4ccccc43)cc2)c1C [compound 6] | 76 nM | – | 10 mg/kg | – | – |
| O=C(Nc1ccc(C(=O)N2CCCC(O)c3ccccc32)cc1)c1cc(Cl)cc(Cl)c1 (centres unmarked) [compound 178] | 12 nM | – | – | – | 4.2 mg/kg |
| Cc1ccccc1C(=O)Nc1ccc(C(=O)N2CCC(C)C(O)c3ccccc32)cc1 (centres unmarked) [compound 256] | 4 nM | 49 nM | – | – | – |
| Cc1cccc(C)c1C(=O)Nc1ccc(C(=O)N2CCCCc3ccccc32)cc1 [compound 64] | 7 nM | 69 nM | – | – | – |
| Cc1ccccc1C(=O)Nc1ccc(C(=O)N2CCCC(OC(=O)CN(C)C)c3ccccc32)cc1 (centres unmarked) [compound 275] | 18 nM | 180 nM | – | – | – |
| CNC(=O)COC1CCCN(C(=O)c2ccc(NC(=O)c3ccccc3Cl)cc2)c2ccccc21 (centres unmarked) [compound 195] | 10 nM | 170 nM | – | – | – |
| Cc1ccccc1C(=O)Nc1ccc(C(=O)N2CCCC(NC3CCN(Cc4ccccc4)CC3)c3ccccc32)cc1 (centres unmarked) [compound 274] | 24 nM | 110 nM | – | – | – |
| O=C(Nc1ccc(C(=O)N2CCCC(NCc3ccccc3)c3ccccc32)cc1)c1ccccc1Cl (centres unmarked) [compound 252] | 63 nM | 360 nM | – | – | – |
| Cc1ccccc1C(=O)Nc1ccc(C(=O)N2CCCC(NC(=O)Nc3ccccc3)c3ccccc32)cc1 (centres unmarked) [compound 280] | 45 nM | 470 nM | – | – | – |
| CN(CCO)CCOc1ccccc1C(=O)Nc1ccc(C(=O)N2CCCCc3ccccc32)cc1 [compound 125] | 280 nM | 91 nM | – | – | – |
| COc1cc(NC(=O)c2ccccc2C)ccc1C(=O)N1CCCC(O)c2ccccc21 (centres unmarked) [compound 238] | 20 nM | 390 nM | – | – | – |
| C#CCN(CC(=O)Nc1ccc(C(=O)N2CCCCc3ccccc32)cc1)c1ccccc1 [compound 130] | 7 nM | 23 nM | – | – | – |
| O=C(Nc1ccc(C(=O)N2CCCCc3ccccc32)cc1)c1ccccc1OCCCCCCN1CCOCC1 [compound 74] | 510 nM | 100 nM | – | – | – |
| O=C(Nc1ccc(C(=O)N2CCCCc3ccccc32)cc1)c1cc(Cl)cc(Cl)c1 [compound 32] | 16 nM | 300 nM | – | – | – |
| O=C(Nc1ccc(C(=O)N2CCCCc3ccccc32)cc1)c1ccc(Cl)cc1Cl [compound 62] | 23 nM | 98 nM | – | – | – |
| NC(=O)COc1ccccc1C(=O)Nc1ccc(C(=O)N2CCCCc3ccccc32)cc1 [compound 119] | 59 nM | 49 nM | – | – | – |
| CCN(CC)C(=O)COc1ccccc1C(=O)Nc1ccc(C(=O)N2CCCCc3ccccc32)cc1 [compound 124] | 130 nM | 150 nM | – | – | – |
| CCOC(=O)COc1ccccc1C(=O)Nc1ccc(C(=O)N2CCCCc3ccccc32)cc1 [compound 121] | 180 nM | 450 nM | – | – | – |
| CN(C)C1CCCN(C(=O)c2ccc(NC(=O)c3ccccc3C(F)(F)F)cc2)c2ccccc21 (centres unmarked) [compound 188] | 39 nM | 470 nM | – | – | – |
| CN(C)c1ccccc1C(=O)Nc1ccc(C(=O)N2CCCC(N(C)C)c3ccccc32)cc1 (centres unmarked) [compound 298] | 100 nM | 290 nM | – | – | – |

| Structure (SMILES) | IC50 (V₂ receptor) | IC50 (V₁ receptor) | ED (3-fold urine volume) (SD rats; [1]) | ED₃ (SD rats; as E3, but physiological saline solution used as solvent instead of dimethylformamide) | ED₃ (SD rats; [1]) |
| --- | --- | --- | --- | --- | --- |
| COc1cc(OC)cc(C(=O)Nc2ccc(C(=O)N3CCCCc4ccccc43)cc2)c1 [compound 60] | 150 nM | 180 nM | – | – | – |
| CNC1CCCN(C(=O)c2ccc(NC(=O)c3ccccc3Cl)cc2)c2ccc(Cl)cc21 (centres unmarked) [compound 302] | 11 nM | 71 nM | – | – | – |
| CN(C)C1CCCN(C(=O)c2ccc(NC(=O)c3ccccc3Br)cc2)c2ccccc21 (centres unmarked) [compound 309] | 15 nM | 430 nM | – | – | – |
| CN1CCCN(C(=O)c2ccc(NC(=O)C3CCCCC3)cc2)c2ccccc21 [compound 88] | 21 nM | 340 nM | – | – | – |
| Cc1ccccc1C(=O)Nc1ccc(C(=O)N2CCC(O)Cc3ccccc32)cc1 (centres unmarked) [compound 214] | 58 nM | 270 nM | – | – | – |
| O=C(Nc1ccc(C(=O)N2CCCC(NC3CC3)c3cc(Cl)ccc32)cc1)c1ccccc1Cl (centres unmarked) [compound 311] | 13 nM | 78 nM | – | – | – |
| Cc1ccccc1C(=O)Nc1ccc(C(=O)N2CCCC(OCCCN)c3ccccc32)cc1 (centres unmarked) [compound 173] | 8 nM | 150 nM | – | – | – |
| Cc1ccccc1C(=O)Nc1ccc(C(=O)N2CCCC(OCC(=O)N(C)C)c3ccccc32)cc1 (centres unmarked) [compound 163] | 9 nM | 220 nM | – | – | – |
| CC(=O)OCCCCOc1ccccc1C(=O)Nc1ccc(C(=O)N2CCCCc3ccccc32)cc1 [compound 117] | 240 nM | 220 nM | – | – | – |
| O=C(Nc1ccc(C(=O)N2CCCCc3ccccc32)cc1)c1ccccc1Br [compound 56] | 37 nM | 25 nM | – | – | – |
| O=C(Nc1ccc(C(=O)N2CCCCc3ccccc32)cc1)c1c(F)cccc1Cl [compound 63] | 46 nM | 140 nM | – | – | – |
| O=C(Nc1ccc(C(=O)N2CCCCc3ccccc32)cc1)c1cccc(Cl)c1 [compound 30] | 29 nM | 150 nM | – | – | – |
| O=C(Nc1ccc(C(=O)N2CCCCc3ccccc32)cc1)c1ccccc1 [compound 27] | 70 nM | 95 nM | – | – | – |
| Cc1ccccc1C(=O)Nc1ccc(C(=O)N2CC(C)Cc3ccccc32)cc1 (centres unmarked) [compound 46] | 18 nM | 400 nM | – | – | – |
| C=CCN(CC(=O)Nc1ccc(C(=O)N2CCCCc3ccccc32)cc1)c1ccccc1 [compound 115] | 6 nM | 12 nM | – | – | – |
| Cc1ccccc1C(=O)Nc1ccc(C(=O)N2CCCC(OCC(=O)N3CCSCC3)c3ccccc32)cc1 (centres unmarked) [compound 279] | 8 nM | 150 nM | – | – | – |
| Cc1ccccc1C(=O)Nc1ccc(C(=O)N2CCCC(CO)c3ccccc32)cc1 (centres unmarked) [compound 215] | 6 nM | 130 nM | – | – | – |
| O=C(Nc1ccc(C(=O)N2CCCCc3ccccc32)cc1)c1cccc([N+](=O)[O-])c1 [compound 57] | 160 nM | 460 nM | – | – | – |
| Cc1ccccc1C(=O)Nc1ccc(C(=O)N2CCCC(N(C)CC(N)=O)c3ccccc32)cc1 (centres unmarked) [compound 266] | 13 nM | 290 nM | – | – | – |
| CN(C)C1CCCN(C(=O)c2ccc(NC(=O)c3ccccc3Cl)cc2)c2ccc(Cl)cc21 (centres unmarked) [compound 304] | 24 nM | 210 nM | – | – | – |
| CCN(CC(=O)Nc1ccc(C(=O)N2CCCCc3ccccc32)cc1)c1ccccc1 [compound 114] | 6 nM | 11 nM | – | – | – |
